Test results as given in patent US8921414B2, “Spiroketals” (EcoBiotics Ltd, priority 2005, dated 2014).
≈ marks a conversion by molar mass, not a printed value.

Legend:
[1] = tested on: normal human fibroblasts (NFF); assay: Additional in vitro activity: cytotoxic activity, NFF; type: cell-based; conditions: concentration with activity
K562 leukemia = assay: Cell growth inhibition (Table 22), K562; type: cell-based; conditions: Homo sapiens, read-out: IC50 (drug dose which inhibits cell growth by 50%) K562
Method: (§1) The isolated compounds were tested against a number of human and non-human cancer cell lines. The human tumor cell lines were: MCF-7, MDA-MB-231 and T47D, breast cancer; DU145 and PC3, prostate cancer; CI80-13S, ovarian cancer; MM96L, D04, SkMel5, MM418c5 melanoma; HT29, colon cancer; K562 and HL60, leukemia. Mouse cell lines were the B16 mouse melanoma and LK2 UV-induced squamous cell carcinoma (SCC). Neonatal foreskin fibroblasts (NFF) were used as normal control cells. Cells were cultured at 37° C. in 5% carbon dioxide/air, in RPMI 1640 medium containing 10% fetal calf serum.

CI80-13S ovarian cancer = assay: Cell growth inhibition (Table 22), C180-13S; type: cell-based; conditions: Homo sapiens, read-out: IC50 (drug dose which inhibits cell growth by 50%) C180-13S
Method: as §1

leukemia K562 = assay: Additional in vitro activity: antitumor activity, K562; type: cell-based, human; conditions: concentration with activity
[2] = tested on: Neonatal foreskin fibroblasts (NFF); assay: Cell growth inhibition (Table 22), NFF; type: cell-based; conditions: Homo sapiens, read-out: IC50 (drug dose which inhibits cell growth by 50%) NFF
Method: as §1

ovarian C180-13S = assay: Additional in vitro activity: antitumor activity, C180-13S; type: cell-based, human; conditions: concentration with activity
[3] = tested on: NS1 murine myeloma cell line; assay: CyTOX (Cy) cytotoxicity bioassay; type: cell-based; conditions: weight of chemical in last well with activity; real value may be lower
Excerpt: CyTOX (alternatively referred to herein as Cy) is a microtitre plate bioassay use to identify potential antitumor actives. CyTOX is a chromogenic bioassay with broad application to a wide range of tumor and non-tumor cell lines. […] CyTOX features a liquid media into which the test compound has been incorporated together with a novel chromogen. As the cells grow and divide the chromogen is metabolised from purple in a single step process to a colourless metabolite. CyTOX is routinely undertaken using NS1 murine myeloma cell line as a guide to mammalian cell toxicity. Briefly, in CyTOX the cells were applied to the media containing the test chemical and allowed to grow for 72 hours. The assay was monitored at 24, 48 and 72 hours and the active wells identified.

prostate DU145 = assay: Additional in vitro activity: antitumor activity, DU145; type: cell-based, human; conditions: concentration with activity
melanoma MM96L = assay: Additional in vitro activity: antitumor activity, MM96L; type: cell-based, human; conditions: concentration with activity
Bacillus subtilis = assay: ProTOX (Bs) antibacterial bioassay; type: cell-based; conditions: weight of chemical in last well with activity; real value may be lower
Excerpt: ProTOX, (alternatively referred to herein as Bs) is an antibacterial bioassay, broadly applicable to most aerobic and anaerobic bacteria. The bioassay features a solid phase agar base into which the test compound has been incorporated together with a chromogen. As the bacteria multiply in the well, the chromogen is metabolised from blue in a two-step process to a colourless compound. Compounds with potent bactericidal activity inhibit bacterial metabolism of the chromogen while bacteriostatic compounds induce limited metabolism as indicated by an intermediate pink colour. ProTOX is broadly applicable to a range of gram-positive and gram-negative bacteria under aerobic and microaerophilic conditions. ProTOX assays were carried out using Bacillus subtilis. Briefly, in ProTOX, the bacteria (24 hour broth) were applied to the surface of an agar matrix containing the test sample and allowed to grow for 48 h. The assay was monitored at 24 and 48 hours and the active wells noted. Known antibiotics yield consistent colour transitions which are concentration and time dependent. These patterns provided an important guide to the early recognition of interesting characteristics.

MCF-7 breast cancer = assay: Cell growth inhibition (Table 22), MCF7; type: cell-based; conditions: Homo sapiens, read-out: IC50 (drug dose which inhibits cell growth by 50%) MCF7
Method: as §1

breast MCF-7 = assay: Additional in vitro activity: antitumor activity, MCF-7; type: cell-based, human; conditions: concentration with activity
melanoma MM418c5 = assay: Additional in vitro activity: antitumor activity, MM418c5; type: cell-based, human; conditions: concentration with activity
DU145 prostate cancer = assay: Cell growth inhibition (Table 22), DU145; type: cell-based; conditions: Homo sapiens, DU-145; read-out: IC50 (drug dose which inhibits cell growth by 50%) DU145
Method: as §1

MM96L melanoma = assay: Cell growth inhibition (Table 22), MM96L; type: cell-based; conditions: Homo sapiens, read-out: IC50 (drug dose which inhibits cell growth by 50%) MM96L
Method: as §1

Giardia spp. = assay: TriTOX (Gi) anti-protozoan bioassay; type: cell-based; conditions: weight of chemical in last well with activity; real value may be lower
Excerpt: TriTOX (alternatively referred to herein as Gi) is a microtitre plate based chromogenic bioassay for the screening of anti-protozoan activity of pathogenic, anaerobic/microaerophilic protozoans for example Giardia spp. and Trichomonas spp. The bioassays are run under anaerobic conditions and features species specific chromogens. […] Aliquots of each concentration(s) are applied to the wells of 96-well microtitre plates and diluted with media. […] The lowest concentration at which the compound is active is noted as the minimum inhibitory concentration (MIC). Additionally, microscopic inspection is carried out to identify any patterns of morphological change that may be consistent with a type of toxicity and therefore mode of action. Giardia spp. was utilized for this assay.

Drosophila melanogaster = assay: DipteraTOX insecticidal bioassay; design: key: A value of A in DipG, Dip P or Dip H represents very active; a value of P represents active; conditions: 250 μg per mL in agar
Method: DipteraTOX. DipteraTOX is referred to herein as DipG, DipP and DipH. DipG represents no grazing of larva. DipP represents no pupae formation and Dip H represents no hatching of flies. A value of A in DipG, Dip P or Dip H represents very active and a value of P represents active. In DipteraTox the fly eggs are applied to the surface of an agar matrix containing 250 μg per mL of the test chemical and allowed to hatch, develop and pupate for a period up of two weeks. The assay was monitored at two discrete times to determine the extent of grazing of the agar matrix at Week 1 and the presence of adult flies at Week 2. […] Drosophila melanogaster was utilised for this assay.

tumor cells = assay: Cell arrest, comparison of ethacrynic acid with EBI-23; type: cell-based

| SMILES | cytotoxic activity against normal human fibroblasts (NFF) at [1] | IC50 (K562 leukemia) | IC50 (CI80-13S ovarian cancer) | antitumor activity against leukemia K562 at (leukemia K562) | IC50 [2] | antitumor activity against ovarian C180-13S at (ovarian C180-13S) | Cy LD99 [3] | antitumor activity against prostate DU145 at (prostate DU145) | antitumor activity against melanoma MM96L at (melanoma MM96L) | Bs LD99 (Bacillus subtilis) | IC50 (MCF-7 breast cancer) | antitumor activity against breast MCF-7 at (breast MCF-7) | antitumor activity against melanoma MM418c5 at (melanoma MM418c5) | IC50 (DU145 prostate cancer) | IC50 (MM96L melanoma) | Gi LD99 (Giardia spp.) | DipH (no hatching of flies) (Drosophila melanogaster) | fold higher concentration than EBI-23 to achieve cell arrest (tumor cells) | selectivity against tumor cells (tumor cells) |
| --- | --- | --- | --- | --- | --- | --- | --- | --- | --- | --- | --- | --- | --- | --- | --- | --- | --- | --- | --- |
| CCCCCCCCCCCCCC(CC1CC(O)CC2(CC3OC(=O)C=CC3O2)O1)OC(C)=O (stereo not shown) [EBI-25] | 30 µg/mL | 6.1 µg/mL (≈ 12.3 µM) | 5 µg/mL (≈ 10.1 µM) | 30 µg/mL | 3 µg/mL (≈ 6.06 µM) | 3 µg/mL | 1.6 µg/mL | 30 µg/mL | 10 µg/mL | 25 µg/mL | 0.34 µg/mL (≈ 0.687 µM) | 300 µg/mL | 10 µg/mL | 1 µg/mL (≈ 2.02 µM) | 1.6 µg/mL (≈ 3.23 µM) | 50 µg/mL | P |  |  |
| CCCCCCCCCCCCCC(CC1C=CCC2(CC3OC(=O)C=CC3O2)O1)OC(C)=O (stereo not shown) [EBI-42] | > 10 µg/mL | > 10 µg/mL | 6 µg/mL (≈ 12.6 µM) |  | > 10 µg/mL | 10 µg/mL |  |  | 10 µg/mL |  | 6 µg/mL (≈ 12.6 µM) |  |  | > 10 µg/mL | 6 µg/mL (≈ 12.6 µM) |  |  |  |  |
| C=C(CC)C(=O)c1ccc(OCC(=O)O)c(Cl)c1Cl [ethacrynic acid] |  |  |  |  |  |  |  |  |  |  |  |  |  |  |  |  |  | 10 fold | no selectivity |
